In publication PMC9492542, “Brain-restricted mTOR inhibition with binary pharmacology” (Nature, 2022):
Where “and” joins values, the source holds several entries; their conditions need not be identical. Identical values can stand only once.

Key:
MTORC1 = conditions: read-out: Kd4 (drug binding to MTORC1 without FKBP); ref Banaszynski et al, PMID 15796538; cited from earlier work
human PBMCs [1] = experiment: Proliferation of anti-CD3/anti-CD28 stimulated PBMCs (120 h); type: cell-based; parameters: PBMC cell proliferation: unit not given here
human PBMCs [2] = experiment: IL-2 secretion of stimulated PBMCs (sandwich ELISA); type: cell-based; parameters: unit not given here
K562 CRISPRi cells = experiment: Cellular dye (TAMRA) retention assay by flow cytometry; type: cell-based
Procedure: Untransduced (no virus or sgRNA^–) and sgRNA expression vector-transduced (sgRNA^+) K562 CRISPRi cells were mixed in a 1:1 ratio, plated in 48-well plates and incubated overnight. Cell mixtures were treated with the indicated TAMRA-linked compounds (300 μl final volume) and incubated for 24 h. Plates were placed over ice and 200 μl of each compound–cell mixture was transferred to a 96-well U-bottom plate. Cells were pelleted at 500g for 5 min and subsequently washed 2× with ice-cold FACS buffer (PBS + 1% BSA + 0.1% NaN3). Cells were resuspended in 200 μl of ice-cold FACS buffer and assessed using an Attune NxT (Thermo Fisher Scientific). Relative uptake of TAMRA-linked compounds was determined by comparing TAMRA fluorescence (561-nm excitation laser and 585/16-nm emission filter) between sgRNA^– and sgRNA^+ cells within each well.

[3] = Cellular activity of FKBP-binding bifunctional kinase inhibitors, with or without RapaBlock; type: cell-based
[4] = 0.005081 nM Rapamycin, +10 µM RapaBlock
[5] = 0.005081 nM Rapamycin, No RapaBlock
[6] = 0.015242 nM Rapamycin, +10 µM RapaBlock
[7] = 0.015242 nM Rapamycin, No RapaBlock
[8] = 0.045725 nM Rapamycin, +10 µM RapaBlock
[9] = 0.045725 nM Rapamycin, No RapaBlock
[10] = 0.137174 nM Rapamycin, No RapaBlock
[11] = 0.411523 nM Rapamycin, +10 µM RapaBlock
[12] = 0.411523 nM Rapamycin, No RapaBlock
[13] = 1.23457 nM Rapamycin, No RapaBlock
[14] = 3.7037 nM Rapamycin, +10 µM RapaBlock
[15] = 3.7037 nM Rapamycin, No RapaBlock
[16] = 11.1111 nM Rapamycin, +10 μM RapaBlock
[17] = 11.1111 nM Rapamycin, No RapaBlock
[18] = 33.3333 nM Rapamycin, +10 μM RapaBlock
[19] = 33.3333 nM Rapamycin, No RapaBlock
[20] = 100 nM Rapamycin, +10 μM RapaBlock

CO[C@H]1C[C@@H]2CC[C@@H](C)[C@@](O)(O2)C(=O)C(=O)N2CCCC[C@H]2C(=O)O[C@H]([C@H](C)C[C@@H]2CC[C@@H](O)[C@H](OC)C2)CC(=O)[C@H](C)/C=C(\C)[C@@H](O)[C@@H](OC)C(=O)[C@H](C)C[C@H](C)/C=C/C=C/C=C/1C [Rapamycin]
Kd (MTORC1): 26 µM | PBMC cell proliferation (human PBMCs [1]; [4]): 90.8 | PBMC cell proliferation (human PBMCs [1]; [5]): 89.3 and 86.4 and 86.7 | PBMC cell proliferation (human PBMCs [1]; [6]): 94.6 | PBMC cell proliferation (human PBMCs [1]; [7]): 70.2 and 84.2 and 80.1 | PBMC cell proliferation (human PBMCs [1]; [8]): 99.9 | PBMC cell proliferation (human PBMCs [1]; [9]): 58.9 and 71.7 and 68.2 | PBMC cell proliferation (human PBMCs [1]; [10]): 55.1 and 66 and 63.4 | PBMC cell proliferation (human PBMCs [1]; [11]): 100.4 | PBMC cell proliferation (human PBMCs [1]; [12]): 48.5 and 57.3 and 55.8 | PBMC cell proliferation (human PBMCs [1]; [13]): 43.2 and 50.6 and 45.3 | PBMC cell proliferation (human PBMCs [1]; [14]): 92 and 97.7 | PBMC cell proliferation (human PBMCs [1]; [15]): 44.5 and 45.4 and 43.4 | PBMC cell proliferation (human PBMCs [1]; [16]): 99 and 90.8 and 96.3 | PBMC cell proliferation (human PBMCs [1]; [17]): 42 and 45.8 and 42.6 | PBMC cell proliferation (human PBMCs [1]; [18]): 96.2 and 95.1 and 85.5 | PBMC cell proliferation (human PBMCs [1]; [19]): 41.2 and 44.7 and 42.3 | PBMC cell proliferation (human PBMCs [1]; [20]): 73.2 and 69.6 and 68.3 | PBMC cell proliferation (human PBMCs [1]; 100 nM Rapamycin, No RapaBlock): 32 and 34 and 31.5 | IL-2 secretion (human PBMCs [2]; [4]): 3684.01 and 3841.04 and 3311.59 | IL-2 secretion (human PBMCs [2]; [5]): 3505.26 and 3941.8 and 3950.69 | IL-2 secretion (human PBMCs [2]; [6]): 3960.64 and 4023.71 and 3669.35 | IL-2 secretion (human PBMCs [2]; [7]): 3568.59 and 3802.04 and 3829 | IL-2 secretion (human PBMCs [2]; [8]): 3856.22 and 4056.95 and 3791.84 | IL-2 secretion (human PBMCs [2]; [9]): 3351.9 and 3536.4 and 3552.37 | IL-2 secretion (human PBMCs [2]; 0.137174 nM Rapamycin, +10 µM RapaBlock): 4033.13 and 3577.76 and 4020.83 | IL-2 secretion (human PBMCs [2]; [10]): 2937.87 and 3159.28 and 3403.45 | IL-2 secretion (human PBMCs [2]; [11]): 4004.34 and 3499.5 and 3861.19 | IL-2 secretion (human PBMCs [2]; [12]): 2246.17 and 2618.32 and 2523.84 | IL-2 secretion (human PBMCs [2]; 1.23457 nM Rapamycin, +10 µM RapaBlock): 4301.65 and 4395.86 and 4103.8 | IL-2 secretion (human PBMCs [2]; [13]): 1538.76 and 1946.24 and 1803.35 | IL-2 secretion (human PBMCs [2]; [14]): 4066.89 and 3684.01 and 4230.73 | IL-2 secretion (human PBMCs [2]; [15]): 1476.21 and 1624.34 and 1751.53 | IL-2 secretion (human PBMCs [2]; [16]): 4063.23 and 3946.51 and 4144.88 | IL-2 secretion (human PBMCs [2]; [17]): 1251.92 and 1234.65 and 1398.74 | IL-2 secretion (human PBMCs [2]; [18]): 4013.77 and 3518.61 and 4247.74 | IL-2 secretion (human PBMCs [2]; [19]): 908.82 and 1132.58 and 1090.71 | IL-2 secretion (human PBMCs [2]; [20]): 4023.19 and 3609.68 and 3592.67 | IL-2 secretion (human PBMCs [2]; 100 nM Rapamycin, No RapaBlock): 580.372 and 339.335 and 575.923

CO[C@H]1C[C@@H](C)C/C(C)=C/[C@@H](CCCC(=O)N2CCN(C(=O)c3ccc(C(=O)[O-])c(-c4c5ccc(=[N+](C)C)cc-5oc5cc(N(C)C)ccc45)c3)CC2)C(=O)C[C@H](O)[C@@H](C)[C@@H](/C(C)=C/[C@@H]2CC[C@@H](O)[C@H](OC)C2)OC(=O)[C@@H]2CCCCN2C(=O)C(=O)[C@]2(O)O[C@H]1[C@@H](OC)C[C@H]2C [FK-TAMRA]
Median TAMRA signal, fold change sgRNA+/sgRNA- (K562 CRISPRi cells; FKBP12 sg1, 1 nM compound): 0.94 × | Median TAMRA signal, fold change sgRNA+/sgRNA- (K562 CRISPRi cells; FKBP12 sg1, 100 nM compound): 0.17 × | Median TAMRA signal, fold change sgRNA+/sgRNA- (K562 CRISPRi cells; FKBP12 sg2, 1 nM compound): 0.95 × | Median TAMRA signal, fold change sgRNA+/sgRNA- (K562 CRISPRi cells; FKBP12 sg2, 100 nM compound): 0.23 × | Median TAMRA signal, fold change sgRNA+/sgRNA- (K562 CRISPRi cells; NegCtrl sg, 1 nM compound): 1.00 × | Median TAMRA signal, fold change sgRNA+/sgRNA- (K562 CRISPRi cells; NegCtrl sg, 100 nM compound): 1.00 ×

CCC(C)(C)C(=O)C(=O)N1CCCC[C@H]1C(=O)O[C@H](CCc1ccc(OC)c(OC)c1)c1cccc(NC(=O)CCC(=O)N2CCN(c3cc(Nc4ncc(C(=O)Nc5c(C)cccc5Cl)s4)nc(C)n3)CC2)c1 [SLF-Dasatinib]
kinase inhibitor activity in cells [3]: did not have kinase inhibitor activity in cells

CO[C@H]1C[C@@H]2CC[C@@H](C)[C@@](O)(O2)C(=O)C(=O)N2CCCC[C@H]2C(=O)O[C@H]([C@H](C)C[C@@H]2CC[C@@H](OCCOCc3cn(CCOCCOCCOCCOCCOCCOCCOCCOCCNC(=O)c4ccc(C(=O)[O-])c(-c5c6ccc(=[N+](C)C)cc-6oc6cc(N(C)C)ccc56)c4)nn3)[C@H](OC)C2)CC(=O)[C@H](C)/C=C(\C)[C@@H](O)[C@@H](OC)C(=O)[C@H](C)C[C@H](C)/C=C/C=C/C=C/1C [RapaTAMRA]
cellular retention (median fluorescence intensity) (K562 CRISPRi cells; after extensive washout): tenfold increase in median fluorescence intensity
